Measurements taken from the NIST ThermoML archive (doi:10.1021/je060271a).
Values joined by “and” are separate entries in the source; they are usually repeats but may differ in a detail not shown here. Equal entries are not always repeated.

Details: 283.15 K, Liquid, Vibrating tube method

CCCCCC(=O)OCC(COC(=O)CCCCC)(COC(=O)CCCCC)COC(=O)CCCCC [pentaerythritol tetrahexanoate]
Details	mass density
7124.1 kPa	1008.3 kg/m3
7135 kPa	1008.3 kg/m3
7146.2 kPa	1008.3 kg/m3
7159.7 kPa	1008.3 kg/m3
7170.9 kPa	1008.3 kg/m3
7182 kPa	1008.3 kg/m3
7193.4 kPa	1008.3 kg/m3
7206.5 kPa	1008.3 kg/m3
7217.2 kPa	1008.4 kg/m3
7228.4 kPa	1008.3 kg/m3
7241.6 kPa	1008.4 kg/m3
7252.8 kPa	1008.4 kg/m3
7264.2 kPa	1008.4 kg/m3
7277.8 kPa	1008.3 kg/m3
7289 kPa	1008.4 kg/m3
7300.4 kPa	1008.3 kg/m3
7311.8 kPa	1008.3 kg/m3
7323.4 kPa	1008.3 kg/m3
7336.9 kPa	1008.4 kg/m3
7348.4 kPa	1008.4 kg/m3
7360.2 kPa	1008.3 kg/m3
7373.8 kPa	1008.5 kg/m3
7385.4 kPa	1008.3 kg/m3
7396.9 kPa	1008.4 kg/m3
7408.7 kPa	1008.5 kg/m3
7422.7 kPa	1008.5 kg/m3
7434.6 kPa	1008.5 kg/m3
7446.5 kPa	1008.5 kg/m3
7458.6 kPa	1008.5 kg/m3
7472.7 kPa	1008.5 kg/m3
7484.8 kPa	1008.6 kg/m3
7496.7 kPa	1008.4 kg/m3
7508.6 kPa	1008.6 kg/m3
7523.2 kPa	1008.5 kg/m3
7534.9 kPa	1008.5 kg/m3
7547.3 kPa	1008.6 kg/m3
7561.6 kPa	1008.5 kg/m3
7573.6 kPa	1008.5 kg/m3
7586 kPa	1008.5 kg/m3
7598.2 kPa	1008.6 kg/m3
7613.2 kPa	1008.4 kg/m3
7625.9 kPa	1008.6 kg/m3
7637.9 kPa	1008.6 kg/m3
7650.7 kPa	1008.5 kg/m3
7665 kPa	1008.6 kg/m3
7678 kPa	1008.5 kg/m3
7690.4 kPa	1008.6 kg/m3
7705.3 kPa	1008.7 kg/m3
7717.7 kPa	1008.6 kg/m3
7730.5 kPa	1008.7 kg/m3
7742.7 kPa	1008.6 kg/m3
7758.4 kPa	1008.7 kg/m3
7771.4 kPa	1008.7 kg/m3
7784.3 kPa	1008.7 kg/m3
7798.4 kPa	1008.5 kg/m3
7811.2 kPa	1008.7 kg/m3
7826.7 kPa	1008.7 kg/m3
7839.6 kPa	1008.8 kg/m3
7852.8 kPa	1008.8 kg/m3
7866 kPa	1008.8 kg/m3
7881.9 kPa	1008.7 kg/m3
7895 kPa	1008.7 kg/m3
7908.3 kPa	1008.7 kg/m3
7924.2 kPa	1008.7 kg/m3
7937.3 kPa	1008.7 kg/m3
7950.8 kPa	1008.6 kg/m3
7967.7 kPa	1008.7 kg/m3
7978.6 kPa	1008.7 kg/m3
7994.5 kPa	1008.8 kg/m3
8008.3 kPa	1008.8 kg/m3
8022.4 kPa	1008.7 kg/m3
8036.2 kPa	1008.9 kg/m3
8052.3 kPa	1008.8 kg/m3
8065.9 kPa	1008.8 kg/m3
8080.1 kPa	1008.9 kg/m3
8094.4 kPa	1008.8 kg/m3
8110.8 kPa	1008.9 kg/m3
8125.1 kPa	1008.8 kg/m3
8139.2 kPa	1008.8 kg/m3
8153.4 kPa	1008.9 kg/m3
8167.7 kPa	1008.8 kg/m3
8184.9 kPa	1008.9 kg/m3
8199.1 kPa	1008.8 kg/m3
8213.4 kPa	1008.9 kg/m3
8230.8 kPa	1008.9 kg/m3
8245.5 kPa	1008.9 kg/m3
8259.8 kPa	1008.8 kg/m3
8274.5 kPa	1009 kg/m3
8291.9 kPa	1008.9 kg/m3
8306.6 kPa	1009 kg/m3
8320.7 kPa	1009 kg/m3
8335.5 kPa	1009.1 kg/m3
8385.6 kPa	1009 kg/m3
8400.7 kPa	1009 kg/m3
8415.4 kPa	1009.1 kg/m3
8430.1 kPa	1009 kg/m3
8447.5 kPa	1009 kg/m3
8463 kPa	1009 kg/m3
8478 kPa	1009.1 kg/m3
8496.3 kPa	1009.1 kg/m3
8511.3 kPa	1009 kg/m3
8529.1 kPa	1009.1 kg/m3
8544.6 kPa	1009.1 kg/m3
8560.6 kPa	1009.1 kg/m3
8576.2 kPa	1009.1 kg/m3
8594.8 kPa	1009.1 kg/m3
8609.8 kPa	1009.2 kg/m3
8625.5 kPa	1009.1 kg/m3
8644.3 kPa	1009.3 kg/m3
8659.6 kPa	1009.2 kg/m3
8678.4 kPa	1009.2 kg/m3
8694.4 kPa	1009.1 kg/m3
8710.5 kPa	1009.1 kg/m3
8729.5 kPa	1009.2 kg/m3
8745.1 kPa	1009.1 kg/m3
8761.5 kPa	1009.1 kg/m3
8778.1 kPa	1009.3 kg/m3
8797.7 kPa	1009.2 kg/m3
8813.6 kPa	1009.3 kg/m3
8833.4 kPa	1009.1 kg/m3
8849.8 kPa	1009.3 kg/m3
8865.8 kPa	1009.3 kg/m3
8882.4 kPa	1009.2 kg/m3
8902.4 kPa	1009.2 kg/m3
8919.1 kPa	1009.3 kg/m3
8935.3 kPa	1009.3 kg/m3
8955.5 kPa	1009.4 kg/m3
8972.2 kPa	1009.2 kg/m3
8992.6 kPa	1009.4 kg/m3
9009.6 kPa	1009.3 kg/m3
9026.7 kPa	1009.4 kg/m3
9043.4 kPa	1009.5 kg/m3
9063.8 kPa	1009.4 kg/m3
9081 kPa	1009.3 kg/m3
9098.4 kPa	1009.5 kg/m3
9118.9 kPa	1009.4 kg/m3
9136.1 kPa	1009.4 kg/m3
9156.6 kPa	1009.4 kg/m3
9173.7 kPa	1009.4 kg/m3
9191.1 kPa	1009.5 kg/m3
9212.2 kPa	1009.5 kg/m3
9230.4 kPa	1009.5 kg/m3
9249.2 kPa	1009.5 kg/m3
9266.9 kPa	1009.5 kg/m3
9284.9 kPa	1009.6 kg/m3
9306.2 kPa	1009.5 kg/m3
9324.2 kPa	1009.5 kg/m3
9341.7 kPa	1009.5 kg/m3
9359.5 kPa	1009.5 kg/m3
9380.7 kPa	1009.4 kg/m3
9398.1 kPa	1009.6 kg/m3
9416 kPa	1009.6 kg/m3
9436.7 kPa	1009.6 kg/m3
9454.6 kPa	1009.6 kg/m3
9473 kPa	1009.6 kg/m3
9490.6 kPa	1009.6 kg/m3
9508.2 kPa	1009.7 kg/m3
9529 kPa	1009.7 kg/m3
9546.3 kPa	1009.7 kg/m3
9563.7 kPa	1009.7 kg/m3
9585 kPa	1009.7 kg/m3
9602.4 kPa	1009.6 kg/m3
9623.6 kPa	1009.7 kg/m3
9642.2 kPa	1009.7 kg/m3
9660.2 kPa	1009.7 kg/m3
9681 kPa	1009.8 kg/m3
9690.2 kPa	1009.7 kg/m3
9690.5 kPa	1009.7 kg/m3
9691 kPa	1009.8 kg/m3
9691.2 kPa	1009.9 kg/m3
9691.4 kPa	1009.8 kg/m3
9691.5 kPa	1009.7 kg/m3
9691.6 kPa	1009.8 kg/m3
9691.9 kPa	1009.7 kg/m3
9692 kPa	1009.8 kg/m3
9692.1 kPa	1009.6 kg/m3
9692.4 kPa	1009.7 kg/m3
9692.6 kPa	1009.8 kg/m3
9692.8 kPa	1009.7 kg/m3
9693.3 kPa	1009.8 kg/m3
9693.4 kPa	1009.8 kg/m3
9693.8 kPa	1009.8 kg/m3
9693.9 kPa	1009.8 kg/m3
9694.3 kPa	1009.8 kg/m3
9694.5 kPa	1009.8 kg/m3
9695 kPa	1009.8 kg/m3
9695.1 kPa	1009.9 kg/m3
9695.3 kPa	1009.9 kg/m3
9695.7 kPa	1009.7 kg/m3 and 1009.8 kg/m3
9695.8 kPa	1009.9 kg/m3
9696.2 kPa	1009.8 kg/m3
9696.4 kPa	1009.8 kg/m3
9696.5 kPa	1009.8 kg/m3
9696.7 kPa	1009.8 kg/m3
9696.9 kPa	1009.8 kg/m3
9697.2 kPa	1009.8 kg/m3
9697.6 kPa	1009.8 kg/m3
9698.1 kPa	1009.5 kg/m3 and 1009.8 kg/m3
9698.2 kPa	1009.8 kg/m3
9698.3 kPa	1009.9 kg/m3
9698.9 kPa	1009.7 kg/m3
9699 kPa	1009.7 kg/m3
9699.1 kPa	1009.7 kg/m3
9699.3 kPa	1009.7 kg/m3
9699.6 kPa	1009.7 kg/m3
9699.8 kPa	1009.7 kg/m3 and 1009.9 kg/m3
9700 kPa	1009.8 kg/m3 and 1009.6 kg/m3
9700.1 kPa	1009.8 kg/m3 and 1009.7 kg/m3
9700.3 kPa	1009.7 kg/m3 and 1009.8 kg/m3
9700.7 kPa	1009.7 kg/m3
9700.8 kPa	1009.7 kg/m3
9701 kPa	1009.7 kg/m3
9701.5 kPa	1009.8 kg/m3 and 1009.7 kg/m3
9701.7 kPa	1009.8 kg/m3
9754.8 kPa	1009.8 kg/m3
9769.2 kPa	1009.7 kg/m3
9783.6 kPa	1009.8 kg/m3
9797.3 kPa	1009.7 kg/m3
9814.5 kPa	1009.7 kg/m3
9828.7 kPa	1009.8 kg/m3
9845.7 kPa	1009.7 kg/m3
9859.7 kPa	1009.8 kg/m3
9874.3 kPa	1009.8 kg/m3
9888.8 kPa	1009.8 kg/m3
9905.8 kPa	1009.8 kg/m3
9919.9 kPa	1009.9 kg/m3
9934.6 kPa	1009.9 kg/m3
9951.8 kPa	1009.9 kg/m3
9966.6 kPa	1009.9 kg/m3
9984 kPa	1009.8 kg/m3
9998.7 kPa	1009.8 kg/m3
10013 kPa	1009.9 kg/m3
10027 kPa	1010 kg/m3
10045 kPa	1009.8 kg/m3
10060 kPa	1009.9 kg/m3
10074 kPa	1009.9 kg/m3
10091 kPa	1010 kg/m3
10106 kPa	1010 kg/m3
10120 kPa	1009.9 kg/m3
10135 kPa	1009.9 kg/m3
10152 kPa	1010 kg/m3
10166 kPa	1010 kg/m3
10181 kPa	1010 kg/m3
10195 kPa	1010 kg/m3
10212 kPa	1010.1 kg/m3
10226 kPa	1010.1 kg/m3
10244 kPa	1010 kg/m3
10258 kPa	1010 kg/m3
10273 kPa	1010 kg/m3
10288 kPa	1009.9 kg/m3
10305 kPa	1010.1 kg/m3
10320 kPa	1010 kg/m3
10334 kPa	1010.1 kg/m3
10352 kPa	1010.1 kg/m3
10367 kPa	1010.2 kg/m3
10382 kPa	1010.1 kg/m3
10400 kPa	1010.1 kg/m3
10415 kPa	1010.2 kg/m3
10430 kPa	1010.1 kg/m3
10445 kPa	1010.1 kg/m3
10463 kPa	1010.2 kg/m3
10478 kPa	1010.2 kg/m3
10496 kPa	1010.1 kg/m3
10511 kPa	1010.2 kg/m3
10526 kPa	1010.1 kg/m3
10541 kPa	1010.3 kg/m3
10559 kPa	1010.2 kg/m3
10575 kPa	1010.3 kg/m3
10590 kPa	1010.2 kg/m3
10608 kPa	1010.2 kg/m3
10622 kPa	1010.3 kg/m3
10638 kPa	1010.2 kg/m3
10656 kPa	1010.3 kg/m3
10671 kPa	1010.4 kg/m3
10686 kPa	1010.3 kg/m3
10704 kPa	1010.4 kg/m3
10719 kPa	1010.2 kg/m3
10733 kPa	1010.3 kg/m3
10749 kPa	1010.2 kg/m3
10766 kPa	1010.3 kg/m3
10780 kPa	1010.3 kg/m3
10798 kPa	1010.3 kg/m3
10812 kPa	1010.4 kg/m3
10826 kPa	1010.4 kg/m3
10840 kPa	1010.4 kg/m3
10858 kPa	1010.4 kg/m3
10872 kPa	1010.3 kg/m3
10887 kPa	1010.4 kg/m3
10904 kPa	1010.4 kg/m3
